Melting point data for 93 compounds are collected here from a melting point compilation (Tetko et al.; mined from patent text by program, amines drawn as free bases though some values may be those of a salt).

Where only a bound is given, the exact number is not on record here.

One may read the melting point as the temperature, or range, at which the solid turns liquid. The compound `Cc1cc(CC2(Cc3cc(C)nc(Cl)c3)c3ccccc3-c3ncccc32)cc(Cl)n1` showed a melting point of 159 to 160 °C.
Regarding `COc1ccc(COCc2nc(C(C)C)c(Sc3cc(Cl)cc(Cl)c3)n2C)cc1`, the melting point was 79 to 80 °C.
The result for `CCOC(=O)c1nccn1C1Cc2ccc(Cl)cc2C1=O` (stereo not drawn) reads 180 °C; that for `O=C(O)CCCCCCCCc1ccc(Cl)cc1`, 73 to 75 °C.
The result for `O=C(c1ccccc1)c1ccc(OCCBr)cc1O` reads 87 to 89.5 °C.
The compound `O=C(CCCC1CCCCCCCCCCC1)C1=C(O)CSC1=O` gave a melting point of 62 to 69 °C.
Consider `CC(=O)NC1CCN(CCC2CCOc3ccccc32)CC1` (stereo not drawn), for which the melting point is 126 to 128 °C.
In the case of `CC(C)(C)OC(=O)N1CCN(c2ccc(C(=O)CSc3ccnc4ccccc34)cc2)CC1` it was 153 to 154 °C; in that of `COc1cc2c(cc1O)CCCN(Cc1ccccc1OC)C2`, 136 to 137 °C; in that of `CC(=O)Nc1ccc(S(=O)(=O)CC(=O)C23CC4CC(CC(C4)C2)C3)cc1`, 151 to 152 °C.
As to `CCC(Cn1cncn1)(C(=O)O)c1ccc(Cl)cc1Cl` (stereo not drawn), the melting point lay within 206 to 208 °C.
The result for `Clc1cc(Cl)nc(N2CCSCC2)n1` reads 79.5 to 81.5 °C; that for `COc1ccc(-n2nc(C(C)(C)C)cc2NC(=O)c2cccc3cc(Oc4cc(NCCN(C)C)ncn4)ccc23)cc1`, 116 to 117 °C; that for `CCC(CC)(CCCCS(N)(=O)=O)COc1nn2ncnc2cc1C`, 132 to 133 °C.
In the case of `O=C(c1ccccc1)C1(c2ccccc2)COCO1` (stereo not drawn) it was 66 to 66.5 °C; in that of `c1ccc(Cn2cnc3ccc(NC4=NCCN4)cc32)cc1`, 174 to 175 °C; in that of `Cc1nc(CS(=O)(=O)c2cccs2)sc1-c1ccnc(Nc2ccc(N3CCOCC3)cc2)n1`, 187 to 189 °C.
Regarding `CCSc1ccc(CC(=O)NC(NC(Cc2ccccc2C)=NC#N)C(C)(C)C)cc1` (stereo not drawn), the melting point is 196 to 198 °C.
In turn, `NC(=O)c1cc(C(F)(F)F)cc(F)c1F` registered a melting point of 128 to 130 °C.
The result for `COc1ccc(-c2nc(=O)c3ccccc3o2)cc1` reads 175 to 178 °C; that for `CC(CO)(Sc1cc2cc(O)ccc2[nH]1)c1ccccc1` (stereo not drawn), 143 to 145 °C.
As for `Cn1cncc1C1(C(c2cccs2)c2cccs2)CCOC1=O` (stereo not drawn), the melting point stood at 80 °C.
In turn, `Nc1ncccc1OCc1c(Cl)cccc1Cl` came in with a melting point of 141 to 142 °C.
Take `CNC(=O)C(=NO)c1ccccc1C`: the melting point was 160 to 161 °C.
The result for `CC1CN(C(=O)Cn2c(=O)n(C)c3nc(-c4ccccc4)ncc32)CC(C)O1` (stereo not drawn) reads 160 to 161 °C; that for `O=c1[nH]sc2c1c(=O)c1cc(F)c(F)c(F)c1n2C1CC1`, 243 to 245 °C; that for `c1ccc(Cn2nnnc2-c2ccccc2)cc1`, 54 to 67 °C.
The result for `COc1cc(OC)c(-c2cc3ccccc3s2)cc1C=O` reads 134 to 136 °C.
In the case of `COC(=O)CC1(C)CCc2cc(C#N)ccc2C1=O` (stereo not drawn) it was 117 °C; in that of `CC(C)(C)c1cc(-c2nc(Br)no2)cc(C(C)(C)C)c1O`, 113 to 115 °C.
With `O=C(O)COc1ccc(-c2noc3ccccc23)c(Cl)c1Cl`, the melting point lay in the range of 166 to 167 °C.
In the case of `O=C(O)COc1c(Cl)cc2c(-c3ccccc3F)noc2c1Cl` it was 160 to 170 °C.
The result for `COc1cccc2c1C(=O)OC2(C)O` (stereo not drawn) reads 156 to 158 °C; that for `CC(=O)C(=Cc1cccc([N+](=O)[O-])c1)C(=O)OCCBr`, 94.5 to 95.5 °C.
The result for `c1ccc(-c2cn3c(n2)Cc2ccccc2C3)cc1` reads 195 to 197 °C; that for `Cc1nc2c(N)nc3ccccc3c2n1CC1(O)CCC1`, over 250 °C.
In turn, `O=c1[nH]c(NCCCNc2ncccc2Cl)ncc1Cc1ccc(Cl)cc1` displayed a melting point of 180 to 181 °C.
The result for `COc1ccc(C=CC(=O)Nc2cnc3c(C)cc(C)cc3c2-c2ccccc2Cl)c(OC)c1OC` reads 200 to 201 °C; that for `CCC1(CCCCl)C(=O)Nc2ccc(Cl)cc21` (stereo not drawn), 105 to 107 °C.
In the case of `CCCCOC(=O)[C@H]1CN(c2ccc3c(c2)sc(=O)n3CC)C(=O)O1` it was 99 to 102 °C; in that of `CCSCC#Cc1cc(F)c2ncc(C(=O)NCc3ccc(Cl)cc3)c(O)c2c1`, 232 to 233 °C; in that of `O=C(O)c1ccc2c(c1-c1c(C(=O)O)ccc3c1OCO3)OCO2`, 253 to 255 °C.
As for `Cc1ccc(C)c(OC(=O)c2c3ccccc3nc3ccccc23)c1`, the melting point is 187 to 190 °C.
In the case of `Cc1ccc(O)c(Cl)n1` it was 190 to 191 °C; in that of `Nc1nc(Sc2ccc(F)cc2)cc(-c2ccccc2)n1`, 218 to 220 °C; in that of `O=C(c1c[nH]c2cc(F)ccc12)C(F)(F)F`, 234 to 235 °C.
In the case of `COCCN(C)C(=O)c1cc2c(nc(C)n2C)c2c1CCC1(Cc3ccccc3C1)N2` it was 160 to 161 °C; in that of `Cc1c(C)c2c(c(C)c1NCc1ccccc1)C(c1ccccc1)CO2` (stereo not drawn), 107 to 108 °C.
The result for `CCCCc1nc2cccc(C(=O)OC)c2n1Cc1ccc(-n2cccc2-c2nnn[nH]2)cc1` reads 186 to 187 °C; that for `CSCc1ccc2ncnc(Nc3cccc(C)c3)c2c1`, 134 to 136 °C; that for `CCN(CC)CCNC(=O)c1cc(N)cc(C)c1OC`, 56 to 57 °C.
In turn, `COC(=O)c1ccnc(N2CCN(CC3CC3)C2=O)c1` showed a melting point of 75 to 77 °C.
The result for `O=C(O)c1ccccc1NC(=S)Cc1ccccc1` reads 166 to 167 °C; that for `CC(C)C(=O)NC1=NN(c2cccc(C(F)(F)F)c2)CC1`, 167 to 168 °C; that for `COc1ccc2c(c1)Sc1c(cc(OC)c(O)c1Br)N2C(=O)OC(C)OC(C)=O` (stereo not drawn), 162 to 164 °C.
The compound `COc1ccc(-c2nnc3c4ccccc4c(CNCCCC#N)nn23)cc1` came in with a melting point of 117 to 119 °C.
`CC(=O)Nc1ccc(C2COC(=O)O2)cn1` (stereo not drawn) came in with a melting point of 135 to 139 °C.
In the case of `Cc1c(NC(=O)c2ccc(OCc3ccccc3)cc2)ccc2cc(CN3CCCC3)cnc12` it was 177 to 178 °C; in that of `COc1ccc(F)c(O)c1`, 25 to 26 °C.
Consider `NS(=O)(=O)OCCCCOc1ccccc1`, for which the melting point fell in the range of 76 to 77 °C.
The result for `O=CNc1ccc2c(c1)nc(/C=C/c1ccccc1)n2-c1ccccn1` reads 190 to 192 °C.
For `COc1ccc(-c2c(Cl)c(Cn3cnc4ccccc43)nc3sc4c(c23)CCSC4)cc1`, the melting point is 201 to 203 °C.
The result for `CCCOc1ccc(F)cc1C(=O)O` reads 76 to 78 °C.
For the compound `CCOC(=O)NC(=O)CC(=O)NC(=O)OCC`, the melting point lay within 177 to 178 °C.
In the case of `COC1C(O)C(CO)OC1n1cnc(C(N)=O)c1N` (stereo not drawn) it was 114 to 117 °C.
In the case of `NC(=NO)c1ccc(Cn2ccc(OCc3ccccc3)c(Br)c2=O)cc1` it was 210 to 212 °C; in that of `CCCCOc1cc(CCC(=O)O)ccc1CCCc1ccc(OCC)c(OC)c1`, 66 °C.
Compound `COC(=O)CCN1CCC(=C2c3ccn(C)c3CCn3ncnc32)CC1` returned a melting point of 139 °C.
For the compound `CC(C)OC(=O)c1cc(Cl)c(Cl)c(Cl)n1`, the melting point fell in the range of 105 to 106 °C.
`CC(C)(C)OC(=O)N1CCC(N2CCN(CCCN3CCCCC3)C2=C(C#N)C#N)CC1` yielded a melting point of 141 to 143 °C.
`N#CC(=Cc1ccc(O)c(O)c1)C(N)=O` came in with a melting point of 247 °C.
With `CN(Cc1ccc(NC(=O)C2=Cc3cc(-c4ccc(Cl)cc4)ccc3OCC2)cc1)C1CCOCC1`, the melting point lay within 191 to 192 °C.
In turn, `FC(F)(F)c1cc(CO[C@@H]2CCCN(Cc3ccco3)[C@@H]2c2ccccc2)cc(C(F)(F)F)c1` (relative stereo) gave a melting point of 103 to 104 °C.
On to `CN(C)C(=O)N(O)Cc1cc2ccccc2s1`, for which the melting point lay in the range of 145 to 147 °C.
The result for `NC(=S)c1cnn(-c2c(Cl)cc(C(F)(F)F)cc2Cl)n1` reads 214 to 218 °C.
As to `Cc1nn(-c2ccc([N+](=O)[O-])cc2F)c(=O)[nH]1`, the melting point was in the range of 211 to 212 °C.
`Cc1nc(N2CCc3ccccc3CC2)c(C#N)c(=O)[nH]1` returned a melting point of over 200 °C.
In the case of `COC(=O)c1sc2ccc(OC)cc2c1OC(C)C#N` (stereo not drawn) it was 127 to 129 °C; in that of `CC(C)(C)OC(=O)CC(Cc1ccccc1)NC(=O)C1Cc2ccccc2N1S(=O)(=O)c1ccc(-c2cccc(C(F)(F)F)c2)cc1` (stereo not drawn), 50 °C.
In the case of `COC/C=C\c1cccc(C2(c3ccc(OC(F)F)cc3)N=C(N)N(C)C2=O)c1` (stereo not drawn) it was 41 to 44 °C; in that of `CCN(CC)CCOc1cccc2c1c1cc(F)ccc1n2Cc1ccc(F)cc1`, 75 to 76 °C; in that of `CC/C(=N\OCCCOc1ccc(C(=O)O)c(NC(=O)c2ccc(C(F)(F)F)cc2)c1)c1ccc(C(C)(C)C)cc1`, 149 to 151 °C.
With `c1ccc2c(c1)nc1n2CCC1`, the melting point was 86 to 88 °C.
In the case of `CCCCCCCCC1OC(=O)c2cc(N)ccc21` (stereo not drawn) it was 124 to 125 °C; in that of `Oc1ccccc1CNCCCCCCCCCCCCNCc1ccccc1O`, 72 to 73 °C.
The result for `CC(C)C[C@H](N)C(=O)N1CCN(C(c2ccc(F)cc2)c2ccc(F)cc2)CC1` reads 61 to 68 °C; that for `O=C(Nc1ccc2[nH]c(=O)oc2c1)C(=O)N1CCC(Cc2cccc(F)c2)CC1`, 215 to 217 °C.
`CN1CC[C@@H](c2c(O)cc(O)c3c(=O)cc(-c4cccc(F)c4Cl)oc23)[C@@H]1CO` had a melting point of 221 to 223 °C.
The result for `C(=C\c1nc(COc2ccc(Cn3cnnc3)cc2)co1)/c1ccccc1` reads 209 to 210 °C; that for `Cc1nc(N)nc(N)c1CCCC(C)c1ccc(-c2cc(F)cc(F)c2)cc1` (stereo not drawn), 129 to 134 °C; that for `c1ccc(Cc2nc(-c3ccncc3)cs2)cc1`, 88 to 89 °C.
The compound `CC(C)(C)OC(=O)N[C@@H](Cc1ccc(O)c(O)c1)C(=O)O` registered a melting point of 148 °C.
In the case of `Cn1c([N+](=O)[O-])cnc1CS(=O)(=O)c1ccccn1` it was 187 °C.
